Measured values published in patent publication US20120258938A1, “Enzymatic Production or Chemical Synthesis and Uses for 5,7-Dienes and UVB Conversion Products Thereof” (priority 2008, published 2012).
One block for each compound: values may come before it.

Legend:
[1] = test system: immortalized normal epidermal melanocytes (PIG1 line); experiment: Proliferation of PIG1 melanocytes; assay type: cell-based; conditions: PIG1, 72 h
[2] = test system: neonatal epidermal melanocytes; experiment: Proliferation of neonatal epidermal melanocytes; assay type: cell-based; conditions: 48 hours
[3] = test system: cytokeratin 14; experiment: Real-time RT PCR cytokeratin 14 mRNA, normal epidermal keratinocytes; assay type: cell-based, human; conditions: 10^−10 M
Description: RNA was extracted using an Absolutely RNA RT-PCR Miniprep Kit (Stratagene, La Jolla, Calif.). Real time PCR and reverse transcription products were purchased from Applied Biosystems, Foster City, Calif. Reverse transcription was performed using Taqman® Reverse Transcription Reagents. The following PCR products were used: cytokeratin 14: Hs00265033_m1, involucrin: Hs00846307_s1, CYP27A1: Hs00168003_ml, CYP27B1: Hs00168017_ml, 18SrRNA: Hs99999901_s1. The reaction was performed with Taqman® Universal PCR Master Mix; data were collected on an ABI Prism 7700 and analyzed on Sequence Detector 1.9.1. Specific gene amounts were related to 18SrRNA by comparative CT method.

[4] = test system: MG-63; experiment: Flow cytometry cell cycle and subG1, MG-63; assay type: cell-based, human; conditions: MG-63, 24 h
Description: MD-MBA-231, MG-63, PC-3, and WM164 cells were seeded into Petri dishes and then incubated for 24 h with 20-hydroxycholecalciferol in DMEM medium containing 5% FBS. Then cells were fixed, DNA stained and samples read with flow cytometer as described (7). Data was analyzed with Cell Quest (BD Biosciences). Cell cycle phases were assessed in viable cell populations and subG1 contents were calculated within whole cell population.

[5] = test system: TNFα; experiment: LPS-induced TNFα production by PBMC; assay type: cell-based; conditions: normal human PBMC, LPS (10 pg/ml), 10^−8M
[6] = target: T1, rat CYP24 (Rattus norvegicus, UniProt Q09128); experiment: Metabolism by rat CYP24 in phospholipid vesicles
T1 sequence (Q09128 36-514): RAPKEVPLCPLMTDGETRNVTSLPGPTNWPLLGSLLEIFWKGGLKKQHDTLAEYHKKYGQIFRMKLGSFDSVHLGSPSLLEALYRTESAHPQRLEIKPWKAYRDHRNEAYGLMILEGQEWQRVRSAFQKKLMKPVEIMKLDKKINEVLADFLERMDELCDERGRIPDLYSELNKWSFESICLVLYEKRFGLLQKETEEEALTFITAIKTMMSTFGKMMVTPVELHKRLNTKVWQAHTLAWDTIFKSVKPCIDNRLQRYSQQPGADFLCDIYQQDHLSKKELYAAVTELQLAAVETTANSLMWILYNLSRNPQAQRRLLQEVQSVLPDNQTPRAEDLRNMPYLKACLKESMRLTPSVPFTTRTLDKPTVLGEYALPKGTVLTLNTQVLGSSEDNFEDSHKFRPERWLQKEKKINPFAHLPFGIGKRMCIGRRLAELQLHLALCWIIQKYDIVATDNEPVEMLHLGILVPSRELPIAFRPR
Description: Samples (typically 0.25-1.0 mL) were incubated at 37° C., with shaking, then reactions terminated by the addition of 2.5 mL ice-cold dichloromethane and vortexing. After phase separation aided by centrifugation, the lower organic phase was retained and the upper aqueous phase was extracted twice more with 2.5 mL aliquots of dichloromethane. The dichloromethane was removed under nitrogen and the residual sample dissolved in solvent for HPLC analysis.
To test enzymatic metabolism of 20S(OH)D3 and 20R(OH)D3, the substrates were incorporated into phospholipid vesicles with the ratio of substrate to phospholipid being 0.025 mol/mol phospholipid. Vesicles were incubated with 2 μM bovine CYP11A1 or 0.06 μM human CYP27B1 for up to 10 min. To test enzymatic metabolism of 20(OH)D3 in CYP24, the substrate was incorporated into phospholipids vesicles with 0.15-0.5 μM CYP24. To test enzymatic metabolism of 20(OH)D3 in CYP27A1, purified CYP27A1 was preincubated with the vesicles for 6 min at 37° C. Adrenodoxin was added last to initiate the reaction. For kinetic experiments, the incubations were typically 0.5 mL and were carried out over the initial linear period of the reaction (10 min for vitamin D3 and cholesterol and 30 min for 20(OH)D3).

[7] = test system: NFκB; experiment: Electrophoretic mobility shift assay for NF-κB activation; assay type: cell-based, human; conditions: HaCaT nuclear extracts, 10^−7 M
Description: Electrophoretic mobility shift assay (EMSA) was done using the Odyssey Infrared Imaging System (LI-COR, Inc., Lincoln, Nebr.). The synthetic IRDye-labeled oligonucleotide (LI-COR) used for the DNA mobility shift assay contained the wild-type VDRE sequence sp1 promoter and part of INVOLUCRIN sequence contained the sequence: 5′-GCGGGAGGCAGATCTGGCAGATACTGA-3′ (SEQ ID NO: 3). Oligo was end labeled with infrared dye 700. Unlabeled oligo contained the same sequence. The DNA binding reaction was set up using 2.5 μg of the nuclear extract mixed with oligonucleotide and gel shift binding buffer consisting of: 2.5 mmol/L DTT, 0.25% Tween-20 and 0.25 mg/ml poly(dl):poly(dC) according to the LI-COR protocol. The reaction was incubated at room temperature in the dark for 30 minutes. For NF-κB activation p65 antibody was added to the 1 sample and incubated for the 30 min. Orange loading dye (2 μl of 10×) was added to each sample and loaded on the prerun 5% polyacrylamide gel and ran at 80V for 1 hour. The gel was scanned using Odyssey Infrared Imaging System.
HaCaT keratinocytes were treated with 20,23-dihydroxycholecalciferol for indicated time: 0 h, 30 min, 1 h, 4 h, 16 h and 24 h, at the concentration of 10^−7 [M]. […]

SMILES: C=C1/C(=C\C=C2/CCC[C@]3(C)[C@@H]([C@H](C)CCCC(C)(C)O)CC[C@@H]23)C[C@@H](O)C[C@@H]1O [1α,25-dihydroxycholecalciferol, (5Z,7E)-9,10-secocholesta-5,7,10(19)-triene-1α,3β,25-triol, reference compound]
- proliferation [1]: Dose dependent inhibition of the proliferation
- proliferation [2]: Dose dependent inhibition of the proliferation

- kcat ([6]; phospholipid vesicles): 10.8±0.8 mol/min/mol CYP24
- kcat/Km lower than for 1,25(OH)2D3 ([6]; phospholipid vesicles): 24 fold
- kcat/Km lower than that for 25(OH)D3 ([6]; phospholipid vesicles): 17 fold
SMILES: C=C1CC[C@H](O)C/C1=C/C=C1\CCC[C@@]2(C)[C@H]1CC[C@@H]2[C@@](C)(O)CCCC(C)C [20(OH)D3, (5Z,7E)-9,10-secocholesta-5,7,10(19)-triene-3β,20-diol]
- cytokeratin 14 mRNA expression ([3]; 1 h): 45 % of the control
- cytokeratin 14 mRNA expression ([3]; 6 h): 62 % of the control
- G0/G1 of viable cells [4]: 52%
- G2/M of viable cells [4]: 15
- S of viable cells [4]: 33%
- Viable Cells [4]: 18
- subG1 ([4]; whole cell population): 82
- TNFα production [5]: 2609 ± 1961 pg/mL
- Km [6]: 0.028±0.007 mol substrate/mol phospholipid
- kcat/Km [6]: 386 min^−1(mol substrate/mol phospholipid)^−1

- NFκB DNA-binding activity (EMSA) [7]: inhibited the NFκB binding activity
SMILES: C=C1CC[C@H](O)C/C1=C/C=C1\CCC[C@]2(C)[C@@H](C(C)(O)CC(O)CC(C)C)CC[C@@H]12 (stereo partly drawn) [20,23-dihydroxycholecalciferol, (5Z,7E)-9,10-secocholesta-5,7,10(19)-triene-3β,20,23-triol]
